System: NOMO1
Experiment: cell viability relative to DMSO control; higher = less cytotoxic
Conditions: 48 h
Procedure, shortened: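 NOMO1, SEM and P12-Ichikawa leukemia cells spent at least four passages adapting to each medium before use. They were seeded at 500 cells/well (NOMO1, SEM) or 1000 cells/well (P12-Ichikawa) in 5 μl in 1536-well plates and pin-dosed with library compounds in DMSO at 11 threefold steps from 47 μM down to 0.79 nM. After 48 h at 37°C, CellTiter-Glo One luminescence was read. Viability is reported as a percentage of the DMSO wells on each plate, with cell-free wells as background.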

[1] = HPLM + 10% dialyzed FBS, 0.000781 µM
[2] = HPLM + 10% dialyzed FBS, 0.00234 µM
[3] = HPLM + 10% dialyzed FBS, 0.00702 µM
[4] = HPLM + 10% dialyzed FBS, 0.0211 µM
[5] = HPLM + 10% dialyzed FBS, 0.0632 µM
[6] = HPLM + 10% dialyzed FBS, 0.19 µM
[7] = HPLM + 10% dialyzed FBS, 0.569 µM
[8] = HPLM + 10% dialyzed FBS, 1.71 µM
[9] = HPLM + 10% dialyzed FBS, 5.12 µM
[10] = HPLM + 10% dialyzed FBS, 15.4 µM
[11] = HPLM + 10% dialyzed FBS, 46.1 µM
[12] = RPMI 5 mM glucose + 10% FBS, 0.000781 µM
[13] = RPMI 5 mM glucose + 10% FBS, 0.00234 µM
[14] = RPMI 5 mM glucose + 10% FBS, 0.00702 µM
[15] = RPMI 5 mM glucose + 10% FBS, 0.0211 µM
[16] = RPMI 5 mM glucose + 10% FBS, 0.0632 µM
[17] = RPMI 5 mM glucose + 10% FBS, 0.19 µM
[18] = RPMI 5 mM glucose + 10% FBS, 0.569 µM
[19] = RPMI 5 mM glucose + 10% FBS, 1.71 µM
[20] = RPMI 5 mM glucose + 10% FBS, 5.12 µM
[21] = RPMI 5 mM glucose + 10% FBS, 15.4 µM
[22] = RPMI 5 mM glucose + 10% FBS, 46.1 µM
[23] = RPMI 5 mM glucose + 10% dialyzed FBS, 0.000781 µM
[24] = RPMI 5 mM glucose + 10% dialyzed FBS, 0.00234 µM
[25] = RPMI 5 mM glucose + 10% dialyzed FBS, 0.00702 µM
[26] = RPMI 5 mM glucose + 10% dialyzed FBS, 0.0211 µM
[27] = RPMI 5 mM glucose + 10% dialyzed FBS, 0.0632 µM
[28] = RPMI 5 mM glucose + 10% dialyzed FBS, 0.19 µM
[29] = RPMI 5 mM glucose + 10% dialyzed FBS, 0.569 µM
[30] = RPMI 5 mM glucose + 10% dialyzed FBS, 1.71 µM
[31] = RPMI 5 mM glucose + 10% dialyzed FBS, 5.12 µM
[32] = RPMI 5 mM glucose + 10% dialyzed FBS, 15.4 µM
[33] = RPMI 5 mM glucose + 10% dialyzed FBS, 46.1 µM

Compound	cell viability [1]	cell viability [2]	cell viability [3]	cell viability [4]	cell viability [5]	cell viability [6]	cell viability [7]	cell viability [8]	cell viability [9]	cell viability [10]	cell viability [11]	cell viability [12]	cell viability [13]	cell viability [14]	cell viability [15]	cell viability [16]	cell viability [17]	cell viability [18]	cell viability [19]	cell viability [20]	cell viability [21]	cell viability [22]	cell viability [23]	cell viability [24]	cell viability [25]	cell viability [26]	cell viability [27]	cell viability [28]	cell viability [29]	cell viability [30]	cell viability [31]	cell viability [32]	cell viability [33]
Cc1c[nH]c(/C=C2\C(=O)Nc3ccccc32)c1CCC(=O)O	109%	114%	116%	101%	90.1%	102%	95.3%	83%	82.2%	61.3%	50.7%	125%	124%	114%	122%	122%	116%	121%	116%	103%	70.6%	68.1%	123%	126%	121%	110%	109%	111%	118%	104%	91.7%	77.1%	58.6%
O=C/1\C=C(/OC(=C1)/C2=C3SC4=C(SC3=CC=C2)C=CC=C4)N5CCOCC5	93.3%	94.6%	103%	32.3%	112%	103%	122%	105%	84%	90.1%	82%	79.8%	93.2%	91.1%	19.4%	92%	91.9%	94.7%	96.7%	89.1%	89.3%	90.3%	81.3%	93.6%	98.1%	33.1%	88.2%	104%	107%	99.3%	83.7%	81.2%	86.2%
CNC(=O)[C@H](Cc1ccccc1)NC(=O)[C@H](CC(C)C)[C@H](CSc1cccs1)C(=O)NO	79.9%	100%	91.7%	101%	86.8%	93.7%	97.8%	94.7%	89.4%	77.8%	79.7%	85.6%	76.9%	73.4%	81.1%	93.5%	87.7%	87.2%	95.4%	75%	78.3%	91.8%	78.9%	89%	81.5%	96.7%	87.6%	89.1%	101%	92.8%	83%	70.8%	81.3%
CC/1=C/N([C@@H]2C[C@@H](O)[C@H](CO)O2)C(=O)NC1=O	97.5%	109%	89%	104%	102%	101%	100%	95.1%	80.3%	92.8%	61.2%	84.9%	85.2%	82%	83.4%	88.7%	99.3%	79.7%	88.1%	90.1%	83.7%	66.4%	80%	94%	84.6%	86.4%	98.4%	87.7%	92.1%	85%	75.9%	94.4%	62.3%
O=C(NC1CCNCC1)c1n[nH]cc1NC(=O)c1c(Cl)cccc1Cl	114%	110%	123%	128%	126%	127%	112%	23.5%	7.29%	5.85%	3.89%	112%	110%	110%	104%	112%	115%	111%	33.9%	9.78%	7.73%	3.45%	116%	116%	115%	113%	117%	107%	98.1%	35.8%	7.61%	7.43%	3.85%
COc1ccc(Cc2nccc3cc(OC)c(OC)cc23)cc1OC												115%	118%	124%	117%	105%	108%	138%	110%	103%	114%	23.3%											
C[C@H](NC(=O)C(=O)Nc1ccccc1C(C)(C)C)C(=O)N[C@@H](CC(=O)O)C(=O)COc1c(F)c(F)cc(F)c1F	124%	120%	133%	123%	142%	137%	123%	141%	121%	51.6%	39%	115%	117%	121%	118%	122%	129%	131%	116%	122%	89.1%	26.5%											
CO/N=C(/C(=O)N[C@@H]1C(=O)N2C(C(=O)O)=C(Cn3ccc(=N)n3CCO)CS[C@H]12)c1csc(N)n1	104%	115%	131%	136%	130%	116%	120%	130%	137%	133%	166%												112%	117%	129%	133%	138%	140%	130%	123%	153%	138%	134%
NC(=O)c1ccc(-c2nc(-c3ccc4c(c3)OCCO4)c(-c3ccccn3)[nH]2)cc1												105%	104%	104%	106%	118%	119%	121%	114%	122%	107%	114%	121%	119%	119%	118%	134%	113%	131%	125%	114%	116%	119%
CN(C)Cc1ccc(-c2nc3cccc4c3n2CCNC4=O)cc1	91.1%	99.5%	115%	116%	124%	107%	109%	121%	129%	112%	99.4%	87.2%	108%	94.7%	103%	98.3%	102%	111%	106%	97.2%	103%	104%	98%	102%	90.8%	110%	115%	119%	110%	116%	126%	124%	118%
CC(=O)N1CCN(c2ccc(OCc3nn(C)c(C)c3-c3cccc4c(CCCOc5cc(C)c(Cl)c(C)c5)c(C(=O)O)n(Cc5cccnc5)c34)cc2)CC1	111%	108%	132%	114%	126%	130%	120%	130%	131%	120%	84.6%	111%	115%	124%	150%	130%	136%	146%	126%	120%	134%	94.6%	115%	112%	122%	135%	135%	133%	139%	142%	156%	137%	124%
COc1cc(N2CCC(O)CC2)ccc1Nc1cc(Nc2ccccc2[S+](=O)([O-])C(C)C)c2cc[nH]c2n1	105%	131%	64.6%	53.7%	96.5%	96.3%	89%	79%	74.1%	62.1%	65.6%	91.7%	92.6%	84.6%	84.9%	98.7%	84.4%	92.4%	86.6%	87.6%	74%	71.9%	90.4%	83.4%	97.3%	100%	101%	87.8%	63.4%	84.7%	87.5%	67%	67.1%
CC(C)(C)/[N+]([O-])=C/c1ccc([S+](=O)([O-])[O][Na])cc1[S+](=O)([O-])[O][Na]	97.5%	102%	111%	115%	121%	132%	121%	128%	129%	119%	127%	105%	118%	119%	126%	125%	118%	125%	128%	111%	138%	133%	94%	102%	111%	114%	111%	120%	127%	109%	109%	123%	120%
COc1cc2nccc(Oc3ccc(NC(=O)Nc4ccc(F)cc4F)c(F)c3)c2cc1OC	101%	95.8%	94.1%	84.6%	89.9%	86%	90.3%	83.6%	75%	78.7%	72.2%	83%	95.8%	79.6%	90.5%	96.2%	88.1%	87.5%	90.9%	83%	80.1%	75.7%	96.6%	96.1%	103%	91.9%	94.5%	90.1%	81.7%	102%	80.7%	83.2%	54.6%
COC(=O)N1CCN(Cc2cccc(NC(=O)Nc3ccc(C)nc3)c2F)CC1	115%	111%	111%	104%	104%	100%	100%	101%	102%	82.4%	81.9%	98.5%	98.8%	95.2%	98.8%	95.7%	85.7%	103%	84.2%	84.1%	77.2%	77.6%	91.9%	92.4%	105%	104%	99.6%	93.5%	85.6%	84%	78.1%	83.7%	81.5%
Cc1nc(Nc2ncc(C(=O)Nc3c(C)cccc3Cl)s2)cc(N2CCN(CCO)CC2)n1	90.9%	104%	102%	99.9%	107%	107%	113%	95.2%	83.9%	85.6%	71.9%	104%	102%	106%	101%	105%	105%	117%	110%	100%	89.3%	80.3%	101%	94.5%	102%	92.1%	105%	94.3%	106%	96.2%	81%	75.9%	75.9%
